Test results published in US11098095B1, “Methods of inhibiting MMP-9” (DASMAN DIABETES INSTITUTE, priority 2020, dated 2021).

Legend:
Type in all cases: cell-based
[1] = system: MMP-9 protein secretion by monocytes (THP-1 cells) and macrophages; assay: MMP-9 secreted protein in culture supernatants by sandwich ELISA; conditions: for cross-talk effect of IL-6 and TNF-α stimulation on the secretion of MMP-9 by monocytes: then IL-6/TNF-α for 24 hr; for crosstalk effect of IL-6 on TNF-α's enhancement of MMP-9 expression and secretion: summary statement, concentration not given; for MMP-9 protein secretion levels: monocytes and macrophages, stimulated 24 hr, FIGS. 2A-2B
Method: Monocytes (THP-1 cells and macrophages were cultured in 12-well plates (Costar, Corning Incorporated, Corning, N.Y., USA) at a cell density of 1/10^6 cells/well. Cells were pre-incubated with gp130 inhibitor (SC-144, 1.5 μM) or JAK2 inhibitor (AG-490, 30 μM) for 1 hour and then stimulated with IL-6 or TNF-α or IL-6/TNF-α for 24 hr at 37° C. (with humidity) in 5% CO2. Control cells were incubated with culture media only. Culture media and cells were harvested and MMP9 mRNA and protein expression levels were assessed by real-time PCR (RT-PCR) and ELISA. MMP-9 secreted protein in the supernatants of monocytes and macrophages stimulated with IL-6, TNF-α, or IL-6 and TNF-α was quantified using sandwich ELISA following the manufacturers instructions (SMP900, R&D systems, Minneapolis, USA). As illustrated in FIGS. 2A-2B. […] As illustrated in FIGS. 3A-3B, this robust cross-talk effect of IL-6 and TNF-α stimulation on the secretion of MMP-9 by monocytes may be extinguished by administration of either a JAK2 inhibitor AG-490, See FIG. 3A) or a gp130 inhibitor (SC-144, See FIG. 3B).

[2] = system: MMP-9 proteolytic activity in conditioned media of THP-1 cells; assay: MMP9 proteolytic activity measured using gelatin zymography; conditions: monocytes (THP-1), 24 hours incubation
Method: THP-1 cells were incubated with TNF-α and IL-6. After incubation for 24 hours, conditioned media were collected and mixed with Zymogram sample buffer (BioRad; 62.5 mM Tris-HCl, pH.6.8, 25% glycerol, 4% SDS and 0.01% bromophenol blue) and then loaded on to a 10% polyacrylamide gel with gelatin (10% Ready Gel Zymogram Gel, BioRad) for electrophoresis. The gel was incubated with renaturing buffer BioRad (2.5% Triton X-100) for 1 hour at room temperature and Incubated with zonogram developing buffer.

[3] = system: MMP-9 mRNA expression in monocytes (THP-1 cells) and macrophages; assay: MMP-9 mRNA expression by real-time PCR (RT-PCR); conditions: stimulated 24 hr, FIGS. 1A and 1B
Method: Monocytes (THP-1 cells and macrophages were cultured in 12-well plates (Costar, Corning Incorporated, Corning, N.Y., USA) at a cell density of 1/10^6 cells/well. Cells were pre-incubated with gp130 inhibitor (SC-144, 1.5 μM) or JAK2 inhibitor (AG-490, 30 μM) for 1 hour and then stimulated with IL-6 or TNF-α or IL-6/TNF-α for 24 hr at 37° C. (with humidity) in 5% CO2. Control cells were incubated with culture media only. Culture media and cells were harvested and MMP9 mRNA and protein expression levels were assessed by real-time PCR (RT-PCR) and ELISA.
Total RNA was extracted using RNeasy Mini Kit (Qiagen, Valencia, Calif.; USA). […] For RT-PCR, cDNA template (50 ng) was amplified using inventoried TaqMan Gene Expression Assay products (MMP-9; Hs00234579_m1; GAPDH; Bs0392909_g1; containing two gene-specific printers and one TaqMan MGB probe (6-FAM dye-labeled) with a TaqMan Gene Expression Master Mix (Applied Biosystems, Foster City, Calif., USA) and a 7500 Fast Real-Time PCR System (Applied Biosystems, Foster City, Calif., USA). The mRNA levels were normalized against GAPDH mRNA and MMP-9 mRNA expression relative to control was calculated using the 2^−ΔΔCt-method. Relative mRNA expression is shown as told expression over average of control gene expression. […] The results were analyzed statistically and P<0.05 was considered significant.

| Compound | cross-talk effect of IL-6 and TNF-α stimulation on the secretion of MMP-9 by monocytes ([1]; AG-490 30 μM pre-incubated 1 hour, FIG. 3A) | crosstalk effect of IL-6 on TNF-α's enhancement of MMP-9 expression and secretion [1] | cross-talk effect of IL-6 and TNF-α stimulation on the secretion of MMP-9 by monocytes ([1]; SC-144 1.5 μM pre-incubated 1 hour, FIG. 3B) | MMP-9 protein secretion levels [1] | MMP-9 proteolytic activity [2] | MMP-9 mRNA expression relative to control [3] |
| --- | --- | --- | --- | --- | --- | --- |
| N#C/C(=C\c1ccc(O)c(O)c1)C(=O)NCc1ccccc1 [AG490] | extinguished | suppress |  |  |  |  |
| O=C(NNc1nc2cc(F)ccc2n2cccc12)c1cnccn1 [SC-144] |  | suppress | extinguished |  |  |  |
| interleukin-6 [IL-6] |  |  |  | minimally effected | minimal |  |
| tumor necrosis factor alpha [TNF-α] |  |  |  | increased | lesser | increase |
